The values that follow come from patent US7741359B2, “Hydrogen sulfide derivatives of non-steroidal anti-inflammatory drugs” (Antibe Therapeutics Inc., priority 2006, dated 2010).

Each structure is given as a SMILES string. “Also recorded” adds a separate entry of the source.

In data set [1] the test system is gastric prostaglandin E2 (PGE2) synthesis (COX-1 and/or COX-2). The data set is described as follows: Gastric prostaglandin E2 (PGE2) synthesis in excised rat gastric tissue. It is filed as in vivo. Particulars: oral; doses equimolar to diclofenac 20 mg/kg; tissue taken 3 h after administration; FIG. 2. The method, then:
Briefly, the tissue samples were minced with scissors for 30 min, then placed in 1 mL of sodium phosphate buffer (pH 7.4) and placed in a shaking water bath (37° C.) for 20 min.

The target in data set [2] is T1, COX-1 (Rattus norvegicus, UniProt Q63921).
T1 construct: whole blood thromboxane synthesis, which occurs via COX-1; from tissue; host or cells: rat whole blood (ex vivo clotting after oral dosing)
T1 sequence (Q63921 27-602): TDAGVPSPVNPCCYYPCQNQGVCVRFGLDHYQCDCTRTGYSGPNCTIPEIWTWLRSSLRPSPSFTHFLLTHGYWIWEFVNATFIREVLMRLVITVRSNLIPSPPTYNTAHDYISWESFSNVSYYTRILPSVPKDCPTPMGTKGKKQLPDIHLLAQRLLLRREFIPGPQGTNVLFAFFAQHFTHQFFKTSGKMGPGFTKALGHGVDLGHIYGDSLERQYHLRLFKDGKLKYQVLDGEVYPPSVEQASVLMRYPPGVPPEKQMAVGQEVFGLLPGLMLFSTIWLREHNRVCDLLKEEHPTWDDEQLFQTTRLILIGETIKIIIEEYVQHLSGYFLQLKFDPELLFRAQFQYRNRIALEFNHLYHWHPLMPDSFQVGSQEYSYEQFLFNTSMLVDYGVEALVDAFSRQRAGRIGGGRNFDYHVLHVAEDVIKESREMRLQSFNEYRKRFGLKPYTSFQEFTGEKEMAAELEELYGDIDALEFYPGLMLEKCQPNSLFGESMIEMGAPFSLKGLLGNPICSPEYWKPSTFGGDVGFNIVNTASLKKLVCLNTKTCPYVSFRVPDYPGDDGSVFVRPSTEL
The data set is described as follows: Whole blood thromboxane B2 synthesis of treated rats (inhibition of COX-1). The conditions noted are these: for COX-1 activity (whole blood thromboxane synthesis): hydrogen sulfide releasing moieties alone, dose not given, FIG. 8. It is filed as in vivo. The method, then: Inhibition of COX-1 was also measured using the same rats. […] The samples were then centrifuged for 3 min at 9,000 g and the supernatant was frozen at −80° C. for subsequent measurement of thromboxane B2 concentrations using a specific ELISA.
Inhibition of COX-1 was also measured using the same rats, using the same method as described for FIG. 4. […]

Data set [3] has as its target T2, COX-2 (Rattus norvegicus, UniProt P35355).
T2 construct: from tissue; host or cells: rat subcutaneous airpouch (in vivo, zymosan-induced inflammation)
T2 sequence (P35355 18-604): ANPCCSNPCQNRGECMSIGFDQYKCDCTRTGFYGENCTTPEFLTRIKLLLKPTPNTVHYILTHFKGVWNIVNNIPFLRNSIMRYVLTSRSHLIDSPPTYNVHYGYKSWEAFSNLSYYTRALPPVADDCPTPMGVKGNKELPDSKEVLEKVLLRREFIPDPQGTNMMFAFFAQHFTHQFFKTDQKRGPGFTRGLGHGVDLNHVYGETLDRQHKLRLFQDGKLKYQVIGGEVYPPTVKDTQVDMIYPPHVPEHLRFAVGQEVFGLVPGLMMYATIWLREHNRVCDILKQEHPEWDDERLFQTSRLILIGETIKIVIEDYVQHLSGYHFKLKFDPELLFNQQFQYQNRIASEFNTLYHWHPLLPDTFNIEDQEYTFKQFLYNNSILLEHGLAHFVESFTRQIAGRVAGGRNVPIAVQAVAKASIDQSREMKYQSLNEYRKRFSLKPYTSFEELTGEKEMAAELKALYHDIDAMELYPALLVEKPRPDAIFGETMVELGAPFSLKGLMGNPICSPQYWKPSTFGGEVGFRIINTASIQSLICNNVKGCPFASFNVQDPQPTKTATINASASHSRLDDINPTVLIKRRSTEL
Nature of the data set: Rat airpouch assay, exudate PGE2 after zymosan (inhibition of COX-2 in vivo). Particulars: for COX-2 activity (exudate PGE2): hydrogen sulfide releasing moieties alone, dose not given. The method, then: Briefly, a subcutaneous “pouch” is created by repeated injections of air over several days. Once established, inflammation in the pouch can be induced by injection of 1 mL of 1% zymosan. […] Another group of 5 rats was treated with the vehicle, but received an injection of 0.9% sterile saline into the pouch rather than zymosan. […]
Each group consisted of 5 rats.

Data set [4] is described as follows: Small intestinal injury after repeated administration. Particulars: 50 μmol/kg at time 0, 12 and 24 hours; assessed 24 h after final dose; FIG. 5.
Data set [5] in a line: Gastric damage (gastric damage score) in rats after oral dosing. Particulars: rats fasted 18 h; oral; doses equimolar to diclofenac 20 mg/kg; 3 h after administration; FIG. 1.
For data set [6], the system named is leukocyte adherence to the vascular endothelium. The data set is described as follows: Leukocyte adherence to the vascular endothelium, intravital microscopy of mesenteric venules. The conditions noted are these: intragastric 30 μmol/kg; for Number of Adherent Leukocytes: mean ± SEM.
Protocol: Briefly, post-capillary mesenteric venules in anesthetized rats are examined under a light microscope. […] All test compounds were prepared in a vehicle of 1% carboxymethylcellulose. Changes in leukocyte adherence within the venule were recorded with a video camera attached to the microscope, and quantification of the numbers of adherent leukocytes was performed in a blind manner through evaluation of the videotaped images. Each group consisted of 5 male, Wistar rats weighing 150-175 g. A leukocyte was considered “adherent” if it remained stationary for 30 seconds or more (results below are expressed as the mean ± SEM).
Data set [7] is described as follows: Systolic blood pressure in hypertensive (L-NAME) rats. The conditions noted are these: 30 μmol/kg intraperitoneal bolus; recorded for 60 minutes; FIG. 14.
Data set [8] in a line: Hematocrit before and after repeated administration. The format is in vivo, rat. Particulars: 50 μmol/kg at time 0, 12 and 24 hours; start versus 24 h after final dose; FIG. 6. An excerpt:
Another group of rats received vehicle (1% carboxymethylcellulose).

Data set [9] in a line: Carrageenan hindpaw edema model. It is filed as in vivo, rat. The conditions noted are these: 30 min prior to carrageenan. The method, then: Male, Wistar rats weighing 175-200 g were given the test compounds orally 30 min prior to subplantar injection of 100 ul of 1% lambda carrageenan. Paw volume measured using an Ugo Basile hydroplethysmometer prior to carrageenan injection and at 1-h intervals thereafter for 5 h.
(Carrageenan injected into the paw causes an acute inflammation.)

Data set [10] is described as follows: Incidence of gastric damage at the end of the leukocyte adherence experiment. The conditions noted are these: intragastric 30 μmol/kg; for Percent Incidence of Gastric Damage: end of experiment.
Protocol: Briefly, post-capillary mesenteric venules in anesthetized rats are examined under a light microscope. […] All test compounds were prepared in a vehicle of 1% carboxymethylcellulose. Changes in leukocyte adherence within the venule were recorded with a video camera attached to the microscope, and quantification of the numbers of adherent leukocytes was performed in a blind manner through evaluation of the videotaped images. Each group consisted of 5 male, Wistar rats weighing 150-175 g. A leukocyte was considered “adherent” if it remained stationary for 30 seconds or more (results below are expressed as the mean ± SEM). At the end of the experiment the stomach was opened and examined for the presence of gastric damage, under a dissecting microscope.
For data set [11], the target named is T3, COX-1 (Homo sapiens, UniProt P23219).
T3 construct: from tissue; host or cells: human whole blood from healthy volunteers
T3 sequence (P23219 24-599): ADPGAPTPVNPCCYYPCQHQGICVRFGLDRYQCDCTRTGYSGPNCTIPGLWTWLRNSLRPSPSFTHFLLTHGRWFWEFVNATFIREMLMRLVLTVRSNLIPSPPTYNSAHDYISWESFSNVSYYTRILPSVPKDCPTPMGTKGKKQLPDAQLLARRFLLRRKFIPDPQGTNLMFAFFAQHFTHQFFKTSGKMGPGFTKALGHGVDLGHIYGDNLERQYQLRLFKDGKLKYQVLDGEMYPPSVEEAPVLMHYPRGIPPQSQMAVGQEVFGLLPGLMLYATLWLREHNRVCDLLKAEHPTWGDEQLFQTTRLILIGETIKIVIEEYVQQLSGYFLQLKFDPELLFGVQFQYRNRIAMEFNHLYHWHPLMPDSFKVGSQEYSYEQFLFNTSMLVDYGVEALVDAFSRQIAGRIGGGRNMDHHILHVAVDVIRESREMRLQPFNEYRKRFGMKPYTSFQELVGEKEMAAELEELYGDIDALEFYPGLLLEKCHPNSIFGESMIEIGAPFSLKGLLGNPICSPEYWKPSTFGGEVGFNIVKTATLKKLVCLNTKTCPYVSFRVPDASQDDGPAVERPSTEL
The data set is described as follows: Human whole blood thromboxane B2 synthesis in vitro. The format is cell-based. Particulars: FIG. 12; for inhibition of COX-1 activity (thromboxane B2 synthesis by human blood): 0.1, 0.3, 1 or 3 μM, 45 min 37° C. The method, then: Aliquots (0.5 mL) of blood from healthy human volunteers were added to glass tubes containing 10 uL of methanol alone, or one of the test drugs prepared such that the final concentration would be 0.1, 0.3, 1 or 3 μM. The tubes were placed in water bath (37° C.) with gentle shaking for 45 min, after which they were centrifuged (1,000×g) for 10 minutes. The concentration of thromboxane B2 in each sample was then determined using a specific ELISA, as in the studies shown in FIG. 4.

Data set [12] in a line: Healing of acetic acid-induced gastric ulcers. It is filed as in vivo, rat. The method, then: Gastric ulcers were induced via serosal application of acetic acid, as described by Elliott et al., A nitric oxide-releasing nonsteroidal anti-inflammatory drug accelerates gastric ulcer healing in rats. Gastroenterology 1995; 109: 524-530. […] After 4 days of such treatment, the rats were euthanized and the stomach was excised and photographed. The area (in mm^2) of the ulcer was determined planimetrically by an individual unaware of the treatments given to the rats. In a subgroup of 5 rats euthanized 3 days after induction of gastric ulcers (i.e., prior to initiation of drug treatment), the mean surface area of the ulcers was 24±2 mm^2.

As for `Oc1ccc(-c2cc(=S)ss2)cc1` [ADT-OH, 5-p-hydroxyphenyl-1,2-dithiole-3-thione, reference compound], the “gastric PGE2 synthesis” value in data set [1] is reported as “did not reduce gastric PGE2 synthesis when compared to vehicle”. Besides, the “COX-1 activity (whole blood thromboxane synthesis)” value in [2] was “neither of the hydrogen sulfide releasing moieties (ADT-OH and TBZ) significantly affected COX-1 activity”. For the same molecule, in [3], the “COX-2 activity (exudate PGE2)” value was “neither of the hydrogen sulfide releasing moieties (ADT-OH and TBZ) significantly affected COX-2 activity”.

In the case of `O=C(Cc1ccccc1Nc1c(Cl)cccc1Cl)Oc1ccc(-c2cc(=S)ss2)cc1` [Compound II, [2-(2,6-dichloro-phenylamino)-phenyl]-acetic acid 4-(5-thioxo-5H-[1,2]dithiol-3-yl)-phenyl ester], in data set [4], the “extent of small intestinal damage, less than in rats treated with diclofenac” value is greater than 90%. The gastric damage score result in data set [5] was “no gastric damage was seen; also recorded: elicited significantly less gastric damage than diclofenac”. Further, the “gastric PGE2 synthesis” value in data set [1] is recorded as “significantly reduced the amount of gastric PGE2 synthesis; also recorded: near-complete”. For the same molecule, in [6], the “number of adherent leukocytes compared to the parent NSAID alone” value is recorded as “significantly reduced the number of adherent leukocytes per 100 μm vessel length” and the “Number of Adherent Leukocytes” value was 3.0 ± 0.5 per 100 μm vessel length. This molecule had an inhibition at 4.8 mg/kg in [2] (rat, po) greater than 80%. For the same molecule, the “concentrations of PGE2 within the pouch (COX-2)” value in [3] (oral 30 min before injection, diclofenac 3 mg/kg, Compound II 4.8 mg/kg, Compound XVII 4.1 mg/kg, 1% zymosan, FIG. 7) is “markedly reduced the concentrations of PGE2 within the pouch”. Further, the “change in systolic blood pressure” value in [7] was “did not increase systolic blood pressure as compared to the vehicle-treated group; also recorded: significantly lower than that induced by diclofenac and naproxen, respectively”. In addition, the hematocrit result in [8] is “no significant effect on hematocrit”. Besides, the “paw edema (paw volume increase)” value in data set [9] (oral, dose equimolar to diclofenac at 3 mg/kg, compared with diclofenac, FIGS. 9, 10, 3 mg/kg) is “reduced paw edema to a greater extent; also recorded: comparable to the effect of diclofenac at a dose of 10 mg/kg”. Also, in [10], the “percent incidence of gastric damage compared to the parent NSAID alone” value is “significantly reduced the percent incidence of gastric damage when compared to diclofenac alone” and the “Percent Incidence of Gastric Damage” value worked out at 0%.

`COc1ccc2c(c1)c(CC(=O)Oc1ccc(-c3cc(=S)ss3)cc1)c(C)n2C(=O)c1ccc(Cl)cc1` [Compound IV, [1-(4-Chloro-benzoyl)-5-methoxy-2-methyl-1-H-indol-3-yl]-acetic acid 4-(5-thioxo-5-H-[1,2]dithiol-3-yl)-phenyl ester]: in [6], the “Number of Adherent Leukocytes” value stood at 3.6 ± 0.7 per 100 μm vessel length. Besides, in data set [11], the “inhibition of COX-1 activity (thromboxane B2 synthesis by human blood)” value is “concentration-dependent inhibition of COX-1 activity as compared to the vehicle-treated group”. Also, the “Percent Incidence of Gastric Damage” value in data set [10] amounted to 20%.

Turning to `COc1ccc2c(c1)c(CC(=O)Oc1ccc(C(N)=S)cc1)c(C)n2C(=O)c1ccc(Cl)cc1` [Compound XIX, [1-(4-Chloro-benzoyl)-5-methoxy-2-methyl-1-H-indol-3-yl]-acetic acid 4-thiocarbamoyl-phenyl ester], in [11], the “inhibition of COX-1 activity (thromboxane B2 synthesis by human blood)” value is reported as “concentration-dependent inhibition of COX-1 activity as compared to the vehicle-treated group; also recorded: significantly better at inhibiting thromboxane B2 synthesis than the ADT-OH equivalent, Compound IV”. Besides, in data set [11] (concentrations of 1 and 3 μM), the “inhibition of COX-1 activity compared with indomethacin” value is given as “significantly greater (*p<0.05) inhibition of COX-1 activity than that produced by indomethacin”. The “Percent Incidence of Gastric Damage” value in data set [10] was found to be 0%.

Turning to `O=C(O)Cc1ccccc1Nc1c(Cl)cccc1Cl` [Diclofenac, diclofenac, reference compound], the “small intestinal damage (erosions/ulcers)” value in [4] is “extensive erosions and ulcers in the small intestine”. For the same molecule, in data set [12] (30 μmol/kg twice-daily orally for 4 days, starting 3 days after ulcer induction, FIG. 13), the “gastric ulcer healing (ulcer area)” value was “exhibited similar degrees of healing”. The “change in systolic blood pressure” value in data set [7] is recorded as “caused a substantial increase in systolic blood pressure”. In addition, the hematocrit entry in data set [8] is on record as “profound reduction of hematocrit”. In addition, the “paw edema (paw volume increase)” value in data set [9] (oral 1, 3 or 10 mg/kg, FIG. 9) is “dose-dependently reduced paw edema”.

With `NC(=S)c1ccc(O)cc1` [TBZ, 4-hydroxythiobenzamide, reference compound], the “gastric ulcer healing (ulcer area)” value in data set [12] (hydrogen sulfide releasing moiety alone, dose not given) was “did not significantly affect the healing of gastric ulcers as compared to the vehicle-treated group”. Moreover, in data set [1], the “gastric PGE2 synthesis” value was “did not reduce gastric PGE2 synthesis when compared to vehicle”. Further, in [2], the “COX-1 activity (whole blood thromboxane synthesis)” value was “neither of the hydrogen sulfide releasing moieties (ADT-OH and TBZ) significantly affected COX-1 activity”. The “COX-2 activity (exudate PGE2)” value in data set [3] was “neither of the hydrogen sulfide releasing moieties (ADT-OH and TBZ) significantly affected COX-2 activity”.

What is called inhibition is the change of the read-out against control, counted positive when it falls. Low values mean a weak effect, high ones a strong effect.
